Data on 4 molecules can be found in EP3095872A1, “A METHOD OF PRODUCING ALPHA AMINO ACIDS” (Evonik Degussa GmbH, priority 2015, dated 2016).

Like-named read-outs stand apart in the source and are kept apart here. Marks after values point to notes of the source that are not given here. Some results are limits rather than exact numbers.

One data set has as its system P450Cla+CamAB. Description: conversion of fatty acid substrate with P450Cla+CamAB, oxidant O2 + NADPH. The format is biochemical. Conditions: 10 mM substrate, % of the product area of the reaction with H2O2 and 10 mM 1d. Here is the method: (§1) P450BSß was expressed and purified as described in Matsunaga et al. 2001. P450Cla was ordered as synthetic gene and cloned into the pET28a expression vector. Efficient expression of P450Cla was obtained by applying the expression protocol (TBmedia, 20 h, 30 °C) as described in Nazor et al. (2008) under heading 'shake flask expression of P450 BM3'. Purification was performed according to the published protocol (Girhard M., et al, 2007) with minor alterations as (unreported) precipitation of P450Cla during dialysis occured. The dialysis buffer was supplemented with 300 mM NaCl to prevent precipitation of P450Cla. Next, hydroxylation of fatty acid substrates 1a-d (scheme 2) was performed employing purified P450Cla and P450BSß. The oxidant source was varied in case of P450Cla while only H2O2 was used with P450BSß. Table 2: Conversion of fatty acid substrates 1a-d with P450Cla and CYPBSß
(§2) All reactions were performed in closed glass vials for 24 h reaction time at RT with 170 rpm shaking. The reactions were quenched by addition of 100 µl 5 N HCl. Extractions were performed with 500 µl EtOAc containing 0.1 % 1-decanol as internal standard. After drying over Na2SO4, derivatization of acids to corresponding methyl esters was realized by mixing 150 µl of organic phase with 90µl of MeOH prior to supplementation of 20 µl of TMSCHN2 for esterification. Samples were analyzed by GC-FID and GC-MS. […]

The subject of data set [1] is P450Cla. In words: conversion of fatty acid substrates 1a-d with P450Cla, oxidant H2O2. The format is biochemical. Particulars: 3 µM P450Cla, 24 h, RT, values marked a based on substrate depletion. On the procedure:
P450Cla was ordered as synthetic gene and cloned into the pET28a expression vector. […] The dialysis buffer was supplemented with 300 mM NaCl to prevent precipitation of P450Cla. Next, hydroxylation of fatty acid substrates 1a-d (scheme 2) was performed employing purified P450Cla and P450BSß. The oxidant source was varied in case of P450Cla while only H2O2 was used with P450BSß.
Reaction conditions for P450Cla: 3µM P450Cla; Tris-HCl (pH 7.5; 0.1 M); 2.5 to 5 % EtOH (cosolvent for the substrate).
All reactions were performed in closed glass vials for 24 h reaction time at RT with 170 rpm shaking. The reactions were quenched by addition of 100 µl 5 N HCl. Extractions were performed with 500 µl EtOAc containing 0.1 % 1-decanol as internal standard. After drying over Na2SO4, derivatization of acids to corresponding methyl esters was realized by mixing 150 µl of organic phase with 90µl of MeOH prior to supplementation of 20 µl of TMSCHN2 for esterification. Samples were analyzed by GC-FID and GC-MS. Commercial standards of 2-hydroxycaproic acid (2a), 2-hydroxyoctanoic acid (2b) and 2-oxooctanoic acid (4b) were used as references. Calibration curves were obtained from standards 1a-d and 2a-b prepared identically to the reaction mixtures (5 concentration points from 10 µM to 1 mM).

Data set [2] relates to P450Cla. Description: conversion of fatty acid substrate with P450Cla, oxidant O2 + NADPH. Conditions: 10 mM substrate, without CamAB. It is filed as biochemical. Here is the method:
as §1, §2

The next data set relates to HICDH-proteins. Description: spectrophotometric monitoring (340 nm) and GC-FID of HICDH oxidation and reduction. It is filed as biochemical.
In data set [3] the test system is P450Cla. In words: preparative scale conversion of decanoic acid with P450Cla. The format is biochemical. Conditions: 20 mM decanoic acid; 4 µM P450Cla; 32 mM H2O2 in total; 24 h. Here is the method:
Synthesis of 2-hydroxydecanoic acid was done in 10 ml Tris-HCl (pH 7.5; 0.1 M) employing 4µM P450Cla, 20 mM decanoic acid (38.8 mg of the sodium salt) and 2.5 % EtOH (RT, 170 rpm shaking). Hydrogen peroxide (1.6 mM) was added every 30 min (20 times; in total 32 mM) to the reaction mixture. After 24 h reaction time, 1 ml 5 N HCl was added to stop the reaction. Product extraction was repeated five times using 5 ml EtOAc prior to purification by silica chromatography column using EtOAc/petroleum ether/acetic acid as mobile phase (80:20:1.2). Fractions containing the desired product were combined and concentrated by evaporation under reduced pressure. With the present set up, 16 mg of 2-hydroxydecanoic acid (46 % isolated yield, TTNP450 ∼ 3040) was isolated which was confirmed by GC-MS, 1 H- and 13C-NMR (Figure 1).

For data set [4], the system named is P450Cla. In words: alpha-hydroxylation of selected fatty acids, catalytic and kinetic characterization of P450Cla. The format is biochemical. Conditions: for Product: 10 mM fatty acid, 0.5 µM P450Cla (C10), 1 µM (C8, C6), Tris-HCl pH 7.5, RT, triplicate; for specific activity U mg^-1: P450Cla 48 kDa, values only relevant at initial rate; for Coupling*: mol product per mol H2O2. Here is the method:
Hydroxylation of selected fatty acids was carried out using a fresh preparation of purified P450Cla. P450Cla was characterised for key catalytic parameters specific activities were determined for three selected substrates as shown in Table 1. Table 1: Catalytic and kinetic characterization of P450Cla for conversion of 10 mM of selected fatty acids. All reactions were performed in triplicate.
Conditions: 0.5 µM P450Cla used in reactions with C10; 1 µM P450Cla used in reactions with C8 and C6; All reactions were performed in Tris-HCl (pH 7.5, 0.1 M) at RT and 170 rpm shaking in closed glass vials; *molProduct^-1 molH2O2^-1; ^§molecular weight of P450Cla is 48 kDa, values only relevant at initial rate.

In another data set the target is T1, P450 BM3 variant M2 (Priestia megaterium, UniProt P14779, I402M/R48S/Y52W).
T1 construct: made in house; host or cells: E. coli BL21 Gold (DE3)-derived E. coli lacIQ1 Gold (DE3)
T1 sequence (P14779 whole entry R48S/Y52W/I402M): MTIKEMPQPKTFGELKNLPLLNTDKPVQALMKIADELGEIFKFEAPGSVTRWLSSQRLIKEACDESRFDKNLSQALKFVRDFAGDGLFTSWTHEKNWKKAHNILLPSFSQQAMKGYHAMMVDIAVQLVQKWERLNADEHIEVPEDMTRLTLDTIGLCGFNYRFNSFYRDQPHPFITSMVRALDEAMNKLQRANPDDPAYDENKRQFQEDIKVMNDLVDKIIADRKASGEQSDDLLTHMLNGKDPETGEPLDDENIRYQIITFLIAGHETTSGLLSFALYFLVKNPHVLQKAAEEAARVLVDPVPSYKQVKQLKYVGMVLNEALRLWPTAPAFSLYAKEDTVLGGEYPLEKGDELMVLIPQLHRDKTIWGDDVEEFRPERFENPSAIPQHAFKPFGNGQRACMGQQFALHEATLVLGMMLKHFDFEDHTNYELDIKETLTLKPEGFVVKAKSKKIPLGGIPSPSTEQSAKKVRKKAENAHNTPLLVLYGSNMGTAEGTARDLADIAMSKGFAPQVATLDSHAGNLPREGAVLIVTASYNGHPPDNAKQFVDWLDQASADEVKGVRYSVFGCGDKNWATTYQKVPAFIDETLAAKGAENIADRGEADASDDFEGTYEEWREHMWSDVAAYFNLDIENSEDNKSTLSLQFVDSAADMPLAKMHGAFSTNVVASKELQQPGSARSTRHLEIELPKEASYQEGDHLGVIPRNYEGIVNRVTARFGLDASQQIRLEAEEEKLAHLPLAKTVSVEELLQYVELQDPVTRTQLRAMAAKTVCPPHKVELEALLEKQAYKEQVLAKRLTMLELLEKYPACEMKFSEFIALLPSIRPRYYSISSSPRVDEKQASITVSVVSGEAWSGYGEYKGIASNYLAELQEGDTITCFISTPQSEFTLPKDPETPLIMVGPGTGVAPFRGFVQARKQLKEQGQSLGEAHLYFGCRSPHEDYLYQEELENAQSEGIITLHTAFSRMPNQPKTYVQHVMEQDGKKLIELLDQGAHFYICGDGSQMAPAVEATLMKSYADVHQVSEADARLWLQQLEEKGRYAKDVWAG
The format is biochemical, Bacillus megaterium. Particulars: 50 mM substrate; O2 as oxidant; GDH/glucose NADPH regeneration; absent in control reactions. Here is the method: Ethyl acetoxy-butanoate (EAB) was converted with P450 BM3 variant M2 employing O2 as oxidant.
The essential NADPH cofactor was regenerated using a glucose dehydrogenase (GDH) and glucose as shown in Scheme 3. [drawing 4]
Reactions were done in 1 mL scale (KPi-buffer, pH 7.5, 0.1 M) containing following components: • 12 U GDH • 100 mM glucose • 400 µM NADP+ • 50 mM EBA (substrate) in DMSO (5 % V/V DMSO final) • 50 mg cell free freeze dried lysate of P450 BM3 variant M2
For analysis, 100 µl of the reaction volume were mixed with 100 µl acetonitrile followed by centrifugation to remove insoluble particles. The supernatant was diluted 1:50 in H2O/acetonitrile (50:50; V/V) followed by injection into the LC-MS.
In addition, the product peaks elute earlier than the substrate (3.699 min) indicating a higher polarity possibly due to a hydroxylation of EAB.

Consider `CCCCCCCCCCCC(=O)O` [Substrate 1d, dodecanoic acid], for which the Conversion with P450Cla+CamAB is 5^b %; in the data set on P450Cla [1] (5 mM substrate, H2O2 9.6 mM total) it was >99^a %; in the data set on P450Cla [1] (10 mM substrate, H2O2 19.2 mM total), >99^a %; in the data set with P450Cla [2], 0%.
Regarding `CCCCCCC(=O)C(=O)O` [Substrate 4b, 2-oxooctanoic acid], the “Reduction to 2-hydroxy octanoic acid 2b (GC-FID)” value in the data set on HICDH-proteins was “confirmed”.
`CCCCCCCCCC(=O)O` [Substrate C10, decanoic acid]: in the data set on P450Cla [3], the TTNP450 is roughly 3040. Moreover, in the data set on P450Cla [4], the “Selectivity [% α-OH]” value was greater than 90% and the specific activity was no less than 1 U mg^-1. In addition, in the data set on P450Cla [4] (5 min, H2O2 0.8 mM), the Product is given as 0.67 ± 0.04 mM, the “Selectivity [% α-OH]” value is greater than 95%, the TON is 266 min⁻¹ and the TTN was determined as 1330. Also, in the data set with P450Cla [4] (5 min, H2O2 0.8 mM), the “specific activity U mg^-1” value turned out to be 5.5 U mg^-1 and the “Coupling*” value is 83%. In the data set on P450Cla [4] (15 min, H2O2 0.8 mM), the Product is given as 0.6 ± 0.02 mM, the “Selectivity [% α-OH]” value is greater than 95%, the TON turned out to be 80 min⁻¹ and the TTN stood at 1207. Also, in the data set with P450Cla [4] (15 min, H2O2 0.8 mM), the “specific activity U mg^-1” value stood at 1.7 U mg^-1 and the “Coupling*” value turned out to be 75%. In addition, in the data set with P450Cla [4] (30 min, H2O2 1.6 mM), the Product amounted to 1.2 ± 0.06 mM, the “Selectivity [% α-OH]” value is reported as greater than 95%, the TON is 80 min⁻¹ and the TTN is 2406. Moreover, in the data set on P450Cla [4] (30 min, H2O2 1.6 mM), the “specific activity U mg^-1” value worked out at 1.7 U mg^-1 and the “Coupling*” value stood at 75%.
With Ethyl acetoxy-butanoate [EAB], on P450 BM3 variant M2, the “products of mass 190.08+1 (LC-MS)” value is reported as “formation of two product peaks”.
